Results on two compounds are retold here after publication PMC11861696, “The First K^+-Channel Blocker Described from Tityus fasciolatus Venom: The Purification, Molecular Cloning, and Functional Characterization of α-KTx4.9 (Tf5)” (Toxins, 2025).

Positions of bridges follow the written chain, without caps; N, C: chain ends. Residues, ends and D or L forms follow the SMILES beside them. No end group written: not given here.

The target in test [1] is T1, Kv1.2 (Homo sapiens, UniProt P16389).
T1 construct: expressed in transfected cells; host or cells: HEK293T
T1 sequence (P16389 whole entry): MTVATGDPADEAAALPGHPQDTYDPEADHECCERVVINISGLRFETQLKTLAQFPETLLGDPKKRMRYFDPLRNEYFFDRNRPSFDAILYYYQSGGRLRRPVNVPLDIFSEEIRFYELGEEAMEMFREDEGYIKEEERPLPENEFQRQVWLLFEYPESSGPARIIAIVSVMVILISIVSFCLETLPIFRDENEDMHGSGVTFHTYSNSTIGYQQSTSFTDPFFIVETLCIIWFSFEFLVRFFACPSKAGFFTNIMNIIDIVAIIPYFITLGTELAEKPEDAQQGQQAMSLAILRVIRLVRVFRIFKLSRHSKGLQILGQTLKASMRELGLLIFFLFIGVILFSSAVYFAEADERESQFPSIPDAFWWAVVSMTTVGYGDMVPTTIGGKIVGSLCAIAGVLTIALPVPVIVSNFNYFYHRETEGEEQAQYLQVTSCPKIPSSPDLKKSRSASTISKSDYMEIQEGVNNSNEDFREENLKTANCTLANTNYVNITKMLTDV
Kind of test: whole-cell patch-clamp, K+ current of Kv1.2 in HEK293T. It counts as cell-based. The protocol:
(§1) Human Embrionary kidney HEK293T cells were grown in Dulbeccos’s Modified Eagle’s Medium (Sigma-Aldrich, St. Louis, MO, USA) supplemented with 10% fetal calf serum (GIBCO-ThermoFischer, Waltham, MA, USA) and 1% Antibiotic-Antimycotic® (GIBCO-ThermoFischer, Waltham, MA, USA). HEK293T cells were transfected with 1 μg of pcDNA3-Kv1.1, pcDNA3-Kv1.2, or pcDNA3-Kv1.4 and 0.1 μg of EGFP (Clontech Laboratories, Palo Alto, CA, USA) using Lipofectamine 3000 (ThermoFischer, Waltham, MA, USA). L929 cells expressing the Kv1.3 channel were grown in Dulbeccos’s Modified Eagle’s Medium (Sigma-Aldrich) supplemented with 10% fetal calf serum and 100 units/mL of penicillin and 10 µg/mL of streptomycin. Cells were grown in an incubator with a moist atmosphere and 5% CO2, at a constant temperature of 37 °C.
(§2) Potassium macrocurrents (IKs) were measured in whole-cell mode using a HEKA EPC 10 USB amplifier and controlled by PATCHMASTER software version 2x92 (HEKA Elektronik, Lambrecht, Germany). Experiments were performed at a room temperature of 23 °C. […]
(§3) The pipette (internal) solution contained (mM) KCl 140, MgCl2 2, CaCl2 1, EGTA 10, and HEPES 10, with a pH of 7.3 corrected with KOH and an experimental osmolarity of 337 mOsmol. […] The solutions’ osmolarity was measured with a K-7400S semi-micro osmometer (Knauer Berlin, Germany). […]

The target of test [2] is T2, Kv1.3 (Mus musculus, UniProt P16390).
T2 construct: expressed in transfected cells; host or cells: L929
T2 sequence (P16390 whole entry): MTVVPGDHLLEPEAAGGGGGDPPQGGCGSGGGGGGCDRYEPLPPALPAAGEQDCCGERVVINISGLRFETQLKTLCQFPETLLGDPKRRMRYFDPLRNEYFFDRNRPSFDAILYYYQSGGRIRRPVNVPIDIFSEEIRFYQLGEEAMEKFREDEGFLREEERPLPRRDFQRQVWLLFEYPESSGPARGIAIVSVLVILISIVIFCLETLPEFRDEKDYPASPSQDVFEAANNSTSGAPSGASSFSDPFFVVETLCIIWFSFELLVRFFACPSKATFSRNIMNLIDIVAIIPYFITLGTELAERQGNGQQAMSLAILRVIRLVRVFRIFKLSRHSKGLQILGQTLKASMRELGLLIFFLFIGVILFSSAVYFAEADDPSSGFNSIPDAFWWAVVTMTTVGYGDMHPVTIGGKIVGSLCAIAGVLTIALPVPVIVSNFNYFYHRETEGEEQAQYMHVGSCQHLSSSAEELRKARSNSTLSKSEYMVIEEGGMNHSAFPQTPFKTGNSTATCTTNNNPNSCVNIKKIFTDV
The test can be described thus: whole-cell patch-clamp, K+ current of Kv1.3 in L929. It counts as cell-based. The procedure:
as §1, §2, §3

For test [3], the target named is T1, Kv1.2. The following applies: cited from earlier work.
Test [4] concerns the target T2, Kv1.3. The following applies: cited from earlier work.
Test [5] relates to A549 carcinoma cell. Also noted: method as in PMID 21087602. The note with it: cited from earlier work.

In general, inhibition refers to the relative decrease from the control value, in per cent. The IC50 is the concentration that inhibits the measured activity by half. For `CC[C@H](C)[C@@H]1NC(=O)[C@H](C)NC(=O)[C@H](CCC(=O)O)NC(=O)[C@H](CCCCN)NC(=O)[C@@H]2CSSC[C@@H](C(=O)N[C@@H](Cc3ccc(O)cc3)C(=O)N3CCC[C@H]3C(=O)O)NC(=O)[C@H](CCCCN)NC(=O)[C@@H]3CSSC[C@H](NC(=O)[C@H](CCC(=O)O)NC(=O)[C@@H]4CCCN4C(=O)[C@H](CO)NC(=O)CNC(=O)[C@H](CCCNC(=N)N)NC(=O)[C@@H](NC(=O)[C@H](CCCNC(=N)N)NC(=O)[C@H](C)NC(=O)[C@H](CC(N)=O)NC(=O)[C@@H](NC(=O)[C@H](Cc4ccccc4)NC(=O)[C@@H](N)C(C)C)[C@@H](C)CC)CSSC[C@H](NC(=O)[C@H](CCCCN)NC(=O)CNC(=O)[C@H](C)NC(=O)[C@H](CO)NC(=O)[C@H](CCCCN)NC(=O)CNC1=O)C(=O)N[C@@H](CCSC)C(=O)N[C@@H](CC(N)=O)C(=O)NCC(=O)N[C@@H](CCCCN)C(=O)N3)C(=O)N[C@@H](CC(C)C)C(=O)N1CCC[C@H]1C(=O)N[C@@H](CCCCN)C(=O)N2` [Tf5] (H-VFINARCRGSPECLPKCKEAIGKSAGKCMNGKCKCYP-OH; disulfide 7-28, 13-33, 17-35), the inhibition at 0.5 µM in test [1] (HEK-293T, 500 nM Tf5, HEK293T transfected with pcDNA3-Kv1.2, whole-cell, stimulated at 30 mV over 200 ms from -80 mV, 23 °C, n = 9) amounted to 90.2 ± 3.78%; in test [2] (500 nM Tf5, L929 cells expressing Kv1.3, whole-cell, stimulated at 30 mV over 200 ms from -80 mV, 23 °C, n = 7) it was 81.8 ± 4.29%. In addition, the IC50 in test [1] (dose–response curve, Figure 5E, n ≥5 for each concentration, read-out: Log IC50 Kv1.2 (converted)) is 0.0155 µM; in test [2] (dose–response curve, Figure 5F, n ≥5 for each concentration, read-out: Log IC50 Kv1.3 (converted)), 0.116 µM.
Turning to “MgTx: isolated from the scorpion Centruroides margaritatus, Kv1.2 and Kv1.3 blocker (TIINVKCTSPKQCLPPCKAQFGQSAGAKCMNGKCKCYPH; ends and bridges not checked; cysteine pairing not given here; UniProt P40755 1-39, looked up)”, the “block of Kv1.2” value in test [3] was “Kv1.2 and Kv1.3 blocker”. Moreover, in test [4], the “block of Kv1.3” value was “Kv1.2 and Kv1.3 blocker”. In addition, in test [5], the “viability of A549 carcinoma cell cultures” value is “reduce the viability”.
